We go through 1 compound from US20250186470A1, “Compositions and Methods Using Lactulose for Treating Disease” (THE UNIVERSITY OF CHICAGO, priority 2023, published 2025).

Each structure is given as a SMILES string.

The test system of one experiment is Enterococcus. The experiment is described as follows: Fecal shotgun metagenomics of hospitalized liver disease patients stratified by lactulose exposure: Enterococcus abundance. It counts as in vivo, human. The following applies: for Regression estimate, association with Enterococcus abundance: Table S1, factors lactulose, PPI, stool consistency, antibiotics.
The next experiment concerns bacteremia. The experiment is described as follows: Bacteremia in liver disease patients paired with fecal samples, logistic regression. It counts as in vivo, human. An excerpt:
FIGS. 13A-13E: Bifidobacteria expansion and associated metabolite production are associated with decreased incidence of bacteremia). (A) Flow diagram depicting number of samples and number of patients that were filtered out at each step of analysis for bacteremia. (B) Taxonomic relative abundance by shotgun metagenomics of stool samples paired to blood cultures is plotted in order of decreasing Bifidobacteria abundance from left to right. Underneath each stool sample is the clinical diagnosis associated with a given blood culture (bacteremia (red) or no bacteremia (green)). (C) Volcano plot of normalized metabolite concentrations. P-values were calculated using a two-tailed Wilcoxon rank sum test and are corrected for multiple comparisons using the Benjamini-Hochberg procedure. Values with log 2 fold-change >1 (corresponding to a 2-fold change with a p-value <0.05) were considered significant. (D and E) Quantitative levels for butyrate, propionate, lithocholic acid, and alloisolithocholic acid were compared from samples associated and not associated with SBP. Units for SCFA are mM, and units for BA derivatives are in μg/mL. Each point represents a single sample. Median and interquartile range are indicated by the horizontal line and box, respectively. […] Statistical comparisons between individual groups were analyzed using a two-tailed Wilcoxon rank sum test. […]

[1] abbreviates: fecal samples from lactulose-treated patients.

`OC[C@H]1O[C@@H](O[C@@H]2[C@@H](CO)OC(O)(CO)[C@H]2O)[C@H](O)[C@@H](O)[C@H]1O` (mixture of isomers) [Lactulose, lactulose]: in the experiment with Enterococcus, the “Regression estimate, association with Enterococcus abundance” value is 0.11. In the experiment with Enterococcus (listed as lactulose), the “Regression estimate, association with Enterococcus abundance” value is reported as “positively associates”. For the same compound, in the experiment on Enterococcus (setting [1]), the “Enterococcus abundance, mean” value is reported as 19.4%; the “Enterococcus abundance, median” value is 0.9%; the “Enterococcus abundance, range” value was 0.0-100%. Besides, the “Samples with lactulose exposure among bacteremia” value in the experiment on bacteremia (N = 19) is “(32%)”. Also, the “Samples with lactulose exposure among no bacteremia” value with bacteremia (N = 227) is “(65%)”.
